The values below come from patent US20250388565A1, “ESTROGEN RECEPTOR ALPHA DEGRADERS AND METHODS OF USE THEREOF” (Relay Therapeutics, Inc., priority 2022, published 2025).

This assay deals with T1, ERα protein (HiBiT-tagged) in ESR1_HiBiT KI MCF7 cells (Homo sapiens, UniProt P03372).
T1 sequence (P03372 1-595): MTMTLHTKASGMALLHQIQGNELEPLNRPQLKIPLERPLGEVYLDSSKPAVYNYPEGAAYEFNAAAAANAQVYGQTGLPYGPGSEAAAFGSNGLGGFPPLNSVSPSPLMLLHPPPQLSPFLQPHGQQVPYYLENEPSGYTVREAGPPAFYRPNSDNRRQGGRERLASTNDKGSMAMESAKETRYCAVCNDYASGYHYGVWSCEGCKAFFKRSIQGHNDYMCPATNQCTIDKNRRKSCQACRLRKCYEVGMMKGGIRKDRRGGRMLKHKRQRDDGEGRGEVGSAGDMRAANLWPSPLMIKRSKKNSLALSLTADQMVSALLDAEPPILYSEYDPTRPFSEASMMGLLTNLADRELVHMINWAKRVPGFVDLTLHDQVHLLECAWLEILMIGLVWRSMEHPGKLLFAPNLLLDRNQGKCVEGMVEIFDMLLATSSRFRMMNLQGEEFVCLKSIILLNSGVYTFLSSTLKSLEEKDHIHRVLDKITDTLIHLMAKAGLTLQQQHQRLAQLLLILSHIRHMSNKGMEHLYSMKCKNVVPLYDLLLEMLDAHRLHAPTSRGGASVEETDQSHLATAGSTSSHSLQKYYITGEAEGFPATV
Description: Nano Glo HiBiT Lytic Degradation Assay. The format is cell-based. To be noted: 6 hours with compound, 14-point dose response 1:3, bell-shape curve fit, half-maximal effect of first Hill model, read-out: MCF7 ESR1 HiBiT - (DC50). In a few lines:
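ESR1_HiBiT knock-in MCF7 cells were seeded 24 h before treatment, then exposed to compounds for 6 h at 37° C (14-point 1:3 curves, 10 mM top stock, 0.1% DMSO final, duplicates). HiBiT-ERα was read by lytic LgBiT luminescence, background-subtracted and normalized to DMSO. DC50 was taken from the half-maximal point of the first Hill component of a bell-shaped fit.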
Background: With HiBiT, luminescence reflects the tagged protein that the partner subunit can reach.
Usually DC50 stands for the midpoint of the concentration-degradation curve. Turning to `O=C1CCC(N2Cc3cc(N4CCN(CC5CCN(c6c(F)cc([C@H]7c8ccc(O)cc8CC[C@H]7C7CCCCC7)cc6F)CC5)CC4)ccc3C2=O)C(=O)N1` (stereo in doubt) [Compound I-160, (R)-3-(5-(4-((1-(4-((1S,2S)-2-cyclohexyl-6-hydroxy-1,2,3,4-tetrahydronaphthalen-1-yl)-2,6-difluorophenyl)piperidin-4-yl)methyl)piperazin-1-yl)-1-oxoisoindolin-2-yl)piperidine-2,6-dione], the DC50 was no less than 10000 nM.
The same measure for `O=C1CCC(c2ccc(N3CCN(C4CCN(c5ccc([C@@H]6c7ccc(O)cc7CC[C@@H]6c6ccccc6)cc5)CC4)CC3)cc2)C(=O)N1` (single isomer, unassigned) [Compound I-40]: 370 nM; for `Cn1cc([C@H]2CCc3cc(O)ccc3[C@H]2c2ccc(N3CCC(CN4CCN(c5ccc6c(c5)CN([C@H]5CCC(=O)NC5=O)C6=O)CC4)CC3)cc2)cn1` [Compound I-30]: 2 nM.
Under `O=C1CCC(c2ccc(N3CCN(C4CCN(c5ccc([C@H]6c7ccc(O)cc7CC[C@H]6c6ccccc6)cc5)CC4)CC3)cc2)C(=O)N1` (single isomer, unassigned) [Compound I-41] stands 370 nM; under `[2H]c1c([2H])c([2H])c([C@H]2CC(F)(F)c3cc(O)ccc3[C@H]2c2ccc(N3CCC(CN4CCN(c5ccc6c(c5)CN([C@H]5CCC(=O)NC5=O)C6=O)CC4)CC3)cc2)c([2H])c1[2H]` [Compound I-335, (S)-3-(5-(4-((1-(4-((1R,2S)-4,4-difluoro-6-hydroxy-2-(phenyl-d5)-1,2,3,4-tetrahydronaphthalen-1-yl)phenyl)piperidin-4-yl)methyl)piperazin-1-yl)-1-oxoisoindolin-2-yl)piperidine-2,6-dione], 0.36 nM.
With `C[C@@H]1Cc2cc(O)ccc2[C@@H](c2ccc(N3CCC(CN4CCN(c5ccc6c(c5)CN([C@H]5CCC(=O)NC5=O)C6=O)CC4)CC3)cc2)[C@H]1c1ccccc1` [Compound I-175, (S)-3-(5-(4-((1-(4-((1R,2S,3R)-6-hydroxy-3-methyl-2-phenyl-1,2,3,4-tetrahydronaphthalen-1-yl)phenyl)piperidin-4-yl)methyl)piperazin-1-yl)-1-oxoisoindolin-2-yl)piperidine-2,6-dione], the DC50 is 0.77 nM.
The same measure for `C[C@H]1CCc2cc(O)ccc2[C@H]1c1ccc(N2CCC(CN3CCN(c4ccc5c(c4)CN([C@H]4CCC(=O)NC4=O)C5=O)CC3)CC2)cc1` [Compound I-124, (S)-3-(5-(4-((1-(4-((1R,2S)-6-hydroxy-2-methyl-1,2,3,4-tetrahydronaphthalen-1-yl)phenyl)piperidin-4-yl)methyl)piperazin-1-yl)-1-oxoisoindolin-2-yl)piperidine-2,6-dione]: 1 nM; for `CC1(C)CCC([C@H]2CCc3cc(O)ccc3[C@H]2c2ccc(N3CCC(CN4CCN(c5ccc6c(c5)CN([C@H]5CCC(=O)NC5=O)C6=O)CC4)CC3)cc2)CC1` (single isomer, unassigned) [Compound I-105]: 45.8 nM; for `Cc1cc([C@H]2OCc3cc(O)ccc3[C@H]2c2ccc(N3CCC(CN4CCN(c5ccc6c(c5)CN([C@H]5CCC(=O)NC5=O)C6=O)CC4)CC3)cc2)ccc1F` [Compound I-375, (S)-3-(5-(4-((1-(4-((3S,4R)-3-(4-fluoro-3-methylphenyl)-7-hydroxyisochroman-4-yl)phenyl)piperidin-4-yl)methyl)piperazin-1-yl)-1-oxoisoindolin-2-yl)piperidine-2,6-dione]: 0.89 nM.
With `O=C1CC[C@H](N2Cc3cc(N4CCN(CC5CCN(c6ccc([C@H]7c8ccc(O)cc8C(F)(F)C[C@H]7c7ccccc7)cn6)CC5)CC4)ccc3C2=O)C(=O)N1` [Compound I-338, (3S)-3-[5-[4-[[1-[5-[(1R,2R)-4,4-difluoro-6-hydroxy-2-phenyl-tetralin-1-yl]-2-pyridyl]-4-piperidyl]methyl]piperazin-1-yl]-1-oxo-isoindolin-2-yl]piperidine-2,6-dione], the DC50 stood at 10 nM.
